{"source": "patent US11299641B2", "about": "“Curable liquid composition, composition-accommodating container, liquid composition discharging device, cured material, and method of manufacturing cured material” (RICOH COMPANY, LTD., priority 2018, dated 2022)", "data": [{"system": "female mice", "test": "skin sensitization test in accordance with the Local Lymph Node Assay (LLNA) method, SI value", "format": "in vivo", "settings": "test substance 50.0 w/v percent in acetone/olive oil 4 to 1, 25 μL per ear once a day for three days, BrdU intake", "procedure": "The SI value was measured in the manner described below according to the skin sensitization test in accordance with the Local Lymph Node Assay (LLNA) method.\nα-hexylcinnamaldehyde (HCA; product of FUJIFILM Wako Pure Chemical Corporation) was used as positive control material.\nA liquid mixture containing acetone (product of FUJIFILM Wako Pure Chemical Corporation) and olive oil (product of Fudimi Pharmaceutical Co., Ltd.) in a volume ratio of 4 to 1 was used as medium.\nFor each of the test substances, the positive control, or the medium control, female mice were acclimated for 8 days including 6-day quarantine. No abnormalities were found in all the mice during the quarantine/acclimation period.\nBased on the body weights measured two days before the initiation of sensitization, the mice were categorized into 2 groups (4 mice/group) by the body weight stratified random sampling method so that the body weight of each individual was within −20 to +20 percent of the average body weight of all the individuals. Each of the tested animals was 8 to 9 weeks old at the time of the initiation of sensitization. The individuals not classified into the groups were excluded from the test.\nThe group compositions of the medium control group and positive control group used for the measurement of the SI value are shown in Table 1.\nThe test substance was weighed in a measuring flask, and the volume of the test substance was adjusted to 1 mL while adding the medium. The thus-prepared test substance solution was placed in a light-shielded airtight container (made of glass).\nThe preparation solution and the medium of each test substance and positive control substance were applied to both ears of each animal in an amount of 25 μL for each. A micropipettor was used for application. The tested animals were subjected to this treatment once a day for three consecutive days.\nAbout 48 hours after the final sensitization, the BrdU preparation solution (0.5 mL) was intraperitoneally administered once to each of the tested animals.\nAll the animals used for the test were observed once or more times a day from the day of the initiation of sensitization to the day of the removal of the auricular lymph node (i.e., the day when the animals were transferred from the animal room). […] Measurement of Body Weights The body weight of each of the tested animals was measured on the day of the initiation of sensitization and on the day of the removal of the auricular lymph node (i.e., the day when the animals were transferred from the animal room). Also, the weight average and the standard error for each group were calculated. Removal of Auricular Lymph Node and Measurement of Weight Thereof About 24 hours after the administration of BrdU, the tested animals were allowed to undergo euthanasia, and their auricular lymph nodes were sampled. The surrounding tissue of each auricular lymph node was removed, and the auricular lymph nodes from both the auricles were collectively weighed. Also, the weight average and the standard error of the auricular lymph nodes for each group were calculated. After the weight measurement, the auricular lymph nodes of each individual were stored in a frozen state using a BIO MEDICAL FREEZER set to −20 degrees C. Measurement of BrdU Intake After returning the auricular lymph nodes to room temperature, the auricular lymph nodes were mashed with the gradual addition of physiological saline, and suspended therein. The thus-obtained suspension was filtrated and thereafter dispensed into a 96-well microplate 3 wells by 3 wells per individual. The thus-dispensed suspensions were measured for intake of BrdU according to the ELISA method. The reagents used were a commercially available kit (Cell Proliferation ELISA, BrdU colorimetric, Cat. No. 1647229, product of Roche Diagnostics K.K.). […]", "values": [{"compound": "CCC(Cc1ccccc1)(C(=O)c1ccc(N2CCOCC2)cc1)N(C)C", "note": "(stereo not drawn) [Example B3, 2-(dimethylamino)-1-(4-morpholinophenyl)-2-benzyl-1-butanone]", "SI value in the LLNA test": 10}, {"compound": "Tricyclodecanedimethanol dimethacrylate [Example A6]", "SI value in the LLNA test": 1.3}, {"compound": "C=C(C)C(=O)OCCOCCOC(=O)C(=C)C", "note": "[Example A1, Diethylene glycol dimethacrylate]", "SI value in the LLNA test": 1.1}, {"compound": "C=C(C)C(=O)OCC(CO)OC(=O)C(=C)C", "note": "(stereo not drawn) [Example A7, Glycerol dimethacrylate]", "SI value in the LLNA test": 1.2}, {"compound": "C=CC(=O)OCCCCCCCCCCCCCCCC(C)C", "note": "[Example A5, Isostearyl acrylate]", "SI value in the LLNA test": 1.4}, {"compound": "C=C(C)C(=O)OCC(O)CO", "note": "(stereo not drawn) [Example A8, Glycerol monomethacrylate]", "SI value in the LLNA test": 1.1}, {"compound": "Polypropylene glycol diacrylate [Example A4]", "SI value in the LLNA test": 1.5}]}, {"system": "not given", "test": "not given", "settings": "Safety Data Sheet; cited from earlier work", "values": [{"compound": "CC(C)(O)C(=O)c1ccc(OCCO)cc1", "note": "[Example B1, 1-[4-(2-hydroxyethoxy)-phenyl]-2-hydroxy-2-methyl-1-propane-1-one]", "skin sensitization, evaluation by SDS": "none"}, {"compound": "Caprolactone-modified dipentaerythritol hexaacrylate [Example A2]", "skin sensitization, evaluation by SDS": "none"}]}]}
